Data published in PubChem BioAssay (NCI).
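Assay format: 96-well plates, 48-hour exposure. TGI is the concentration that stops growth completely.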

How the values were obtained:
Test in all cases: inhibition of tumour cell growth, NCI panel, 48 h
[1] = test system: SF-539 CNS
[2] = test system: T-47D breast
[3] = test system: HOP-92 NSCLC
[4] = test system: EKVX NSCLC
[5] = test system: OVCAR-3 ovarian
[6] = test system: MDA-N
[7] = test system: OVCAR-4 ovarian
[8] = test system: HOP-62 NSCLC
[9] = test system: SF-295 CNS
[10] = test system: ACHN renal
[11] = test system: NCI-H522 lung
[12] = test system: NCI-H460 lung

Row | Structure (SMILES) | TGI [1] | TGI [2] | TGI [3] | TGI [4] | TGI [5] | TGI [6] | TGI [7] | TGI [8] | TGI [9] | TGI [10] | TGI [11] | TGI [12]
1 | Cc1ccc(-c2cc(-c3ccc(Cl)cc3)nc(/N=C3\C(=O)N(CN4CCOCC4)c4ccc(Cl)cc43)n2)cc1 | 59.5 µM | 79.8 µM | 62.2 µM | 89.4 µM | > 100 µM | > 100 µM | > 100 µM | 51.8 µM | > 100 µM | 48.5 µM | 36.7 µM | 81.2 µM
2 | COc1cccc2c1C(=O)c1c(O)c3c(c(O)c1C2=O)C[C@@](O)(C(=O)CO)C[C@@H]3OC1CC(N)C(OC)C(C)O1 (stereo partly drawn) | 0.449 µM | 1.73 µM | 0.631 µM | 9.35 µM | 10.6 µM | 36.2 µM | 9.67 µM | 0.354 µM | 1.98 µM | 0.765 µM | 0.45 µM | 0.217 µM
3 | CC(=O)Nc1ccc2cc(C)c(=O)[nH]c2n1 | > 100 µM | > 100 µM | > 100 µM | > 100 µM |  | > 100 µM | > 100 µM |  | > 100 µM | > 100 µM | > 100 µM | > 100 µM
4 | O=C(/C=C/C=C/c1ccccc1)c1ccc2c(c1)CCCC2 | > 100 µM | 93.9 µM | 89.9 µM | > 100 µM | > 100 µM | 62.8 µM | > 100 µM | > 100 µM | > 100 µM | > 100 µM | 37.7 µM | 
5 | C[C@H]1C2Cc3cc(N)ccc3[C@@]1(C)CCN2CCc1ccccc1 | > 100 µM | > 100 µM | 90.9 µM | > 100 µM | 92.6 µM | > 100 µM | > 100 µM | > 100 µM | 98.8 µM | > 100 µM | 31.5 µM | > 100 µM
6 | C[C@@H]1C[C@](O)([C@@H](C)Cl)C(=O)O[C@@H]2CCN3CC=C(COC(=O)[C@]1(C)O)[C@H]23 | > 100 µM | > 100 µM | > 100 µM | > 100 µM | > 100 µM | > 100 µM | > 100 µM | > 100 µM | > 100 µM | > 10 µM | > 100 µM | > 10 µM
7 | NCCCNCCCCNCCCN | 34.3 µM | 5.91 µM | 3.41 µM | 38.6 µM | > 20.1 µM | 41.5 µM | > 21.8 µM | > 100 µM | > 100 µM | 9.22 µM | 0.879 µM | > 100 µM
8 | COc1ccc(C(=O)/C=C/c2ccncc2)cc1OC | 22.1 µM | 30.9 µM | 27.6 µM | 30.5 µM | 18.6 µM | 26.2 µM | 23.2 µM | 29.9 µM | 29.9 µM | 28.1 µM | 21.7 µM | 
9 | COc1ccc(C(OCC2OC(n3cc(C)c(=O)[nH]c3=O)CC2n2cc(Cn3cc(Br)c(=O)[nH]c3=O)nn2)(c2ccccc2)c2ccccc2)cc1 (stereo not drawn) | > 100 µM | > 100 µM | > 100 µM | > 100 µM | > 100 µM | > 100 µM | > 100 µM | > 100 µM | > 100 µM | > 100 µM | > 100 µM | 
10 | C[C@@H]1CCC2[C@@H](C)[C@@H](OCCO[C@H]3OC4O[C@@]5(C)CCC6[C@H](C)CCC([C@H]3C)[C@@]46OO5)OC3O[C@@]4(C)CCC1[C@]32OO4 (stereo partly drawn) | > 100 µM | > 100 µM | > 57.7 µM | > 100 µM |  | > 100 µM | > 100 µM | > 100 µM | > 100 µM | > 100 µM | > 100 µM | > 100 µM
11 | O=C(NCCCN(CCCCN(CCCNC(=O)C(F)(F)F)CCCc1ccccc1)CCCc1ccccc1)C(F)(F)F | 3.16 µM | 3.84 µM | 4.63 µM | 4.23 µM |  | 3.04 µM | 17.6 µM |  | 3.3 µM | 3.42 µM | 3.51 µM | 3.27 µM
12 | O=C(CCc1cc(O)cc(O)c1)NCCc1cc(O)cc(O)c1 | > 100 µM | > 100 µM | > 100 µM | > 100 µM | > 100 µM | > 100 µM |  | > 100 µM | > 100 µM | > 100 µM | > 100 µM | > 100 µM
13 | Cc1ccc(-c2c3c(n(C4OC(CO)C(O)C(O)C4O)c(=S)c2C#N)CC(C)(C)CC3=O)cc1 (stereo not drawn) | > 100 µM | > 100 µM | > 100 µM |  | > 100 µM | > 100 µM | > 100 µM | > 100 µM | > 100 µM | > 100 µM | > 100 µM | > 100 µM
14 | CC(C)(C)NC(=O)N1N=C(c2ccccc2)C1c1ccccc1 (stereo not drawn) | 41.4 µM | > 100 µM | 65 µM | > 100 µM | 50.3 µM | > 100 µM | > 100 µM |  | > 100 µM | > 100 µM | 35.5 µM | > 100 µM
15 | CC1(C)OC(=C(C#N)C#N)C(C#N)=C1/C=C/c1ccncc1 | 3.49 µM | 6.26 µM | 5.17 µM | 5.46 µM | 3.59 µM | 7.27 µM | 8.91 µM |  | 5.28 µM | 3.39 µM | 4.12 µM | 22.4 µM
